Experiments:
PSMA = PSMA (Homo sapiens, UniProt Q04609); experiment: Affinity determinations (IC50), competitive binding assay with ([^125I]I-BA)KuE on LNCaP cells; conditions: ([^125I]I-BA)KuE 0.2 nM, HBSS (1% BSA), 4° C., 1 h, cold ^natGa/^natLu complex
[1] = ^177Lu-labeled compound, n = 6
[2] = tested on: LNCaP tumor xenograft-bearing CB17-SCID mice; experiment: Biodistribution in LNCaP tumor xenograft-bearing CB17-SCID mice

PSMA, sequence (Q04609 whole entry): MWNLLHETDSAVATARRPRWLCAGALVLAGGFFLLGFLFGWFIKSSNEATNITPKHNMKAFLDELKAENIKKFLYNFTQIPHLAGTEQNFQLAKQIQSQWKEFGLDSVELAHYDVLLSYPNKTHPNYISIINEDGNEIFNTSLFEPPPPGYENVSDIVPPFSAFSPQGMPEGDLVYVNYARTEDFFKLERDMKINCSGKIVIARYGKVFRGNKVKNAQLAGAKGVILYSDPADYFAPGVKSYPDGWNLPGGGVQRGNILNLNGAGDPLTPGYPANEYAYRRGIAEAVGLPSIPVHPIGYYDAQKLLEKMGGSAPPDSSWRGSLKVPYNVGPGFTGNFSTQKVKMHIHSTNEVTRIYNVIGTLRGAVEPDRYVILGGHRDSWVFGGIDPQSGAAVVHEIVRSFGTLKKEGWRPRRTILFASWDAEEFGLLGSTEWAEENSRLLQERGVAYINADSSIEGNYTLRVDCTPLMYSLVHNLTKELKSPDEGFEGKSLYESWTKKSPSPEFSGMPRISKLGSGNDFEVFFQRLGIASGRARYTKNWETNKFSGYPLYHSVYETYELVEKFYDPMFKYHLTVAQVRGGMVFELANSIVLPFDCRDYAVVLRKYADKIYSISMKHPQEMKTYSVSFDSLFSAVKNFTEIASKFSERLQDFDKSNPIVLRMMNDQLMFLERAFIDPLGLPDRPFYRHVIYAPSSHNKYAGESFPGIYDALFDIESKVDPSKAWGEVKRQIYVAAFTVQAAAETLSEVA

With `CC(C)(C)[Si](F)(c1ccc(C(=O)NCC(NC(=O)CN2CCN(CC(=O)[O-])CCN(CC(=O)[O-])CCN(CC(=O)[O-])CC2)C(=O)NC(CCCCNC(=O)CCC(=O)NCCCC(NC(=O)CCC(NC(=O)NC(Cc2ccco2)C(=O)O)C(=O)O)C(=O)O)C(=O)O)cc1)C(C)(C)C.[Lu+3]` (centres unmarked) [^natLu-9, ^natLu-Furyl Derivative 9] the IC50 (PSMA) was > 440 nM.
With `CCCCC[C@H](NC(=O)N[C@@H](CCC(=O)N[C@H](CCCNC(=O)CCC(=O)NCCCC[C@@H](NC(=O)[C@@H](CNC(=O)c1ccc([Si](F)(C(C)(C)C)C(C)(C)C)cc1)NC(=O)CN1CCN(CC(=O)[O-])CCN(CC(=O)[O-])CCN(CC(=O)[O-])CC1)C(=O)O)C(=O)O)C(=O)O)C(=O)O.[Lu+3]` [^natLu-8, ^natLu-2-Aminoheptanoic Acid Derivative 8] the IC50 (PSMA) was > 2000 nM.
With `CC(C)(C)[Si](F)(c1ccc(C(=O)NC[C@@H](NC(=O)CN2CCN(CC(=O)[O-])CCN(CC(=O)[O-])CCN(CC(=O)[O-])CC2)C(=O)N[C@H](CCCCNC(=O)CCC(=O)NCCC[C@@H](NC(=O)CC[C@H](NC(=O)O[C@@H](CCC(=O)O)C(=O)O)C(=O)O)C(=O)O)C(=O)O)cc1)C(C)(C)C.[177Lu+3]` [[^177Lu]Lu-3, [^177Lu]Lu-Carbamate I] the “log D” value [1] was −3.40±0.45, the “Biodistribution Adrenals” value ([2]; 1 h p.i.) was 1.46 ± 0.70 % ID/g and the “Biodistribution Blood” value ([2]; 1 h p.i.) was 0.97 ± 0.18 % ID/g. The “Biodistribution Bone” value ([2]; 1 h p.i.) was 0.18 ± 0.02 % ID/g, the “Biodistribution Heart” value ([2]; 1 h p.i.) was 0.36 ± 0.04 % ID/g and the “Biodistribution Intestine” value ([2]; 1 h p.i.) was 0.36 ± 0.17 % ID/g. For the same compound, the “Biodistribution Kidneys” value ([2]; 1 h p.i.) was 61.8±25.9 % ID/g, the “Biodistribution Liver” value ([2]; 1 h p.i.) was 0.87 ± 0.28 % ID/g and the “Biodistribution Lung” value ([2]; 1 h p.i.) was 2.88 ± 2.96 % ID/g. The “Biodistribution Muscle” value ([2]; 1 h p.i.) was 0.13 ± 0.04 % ID/g, the “Biodistribution Pancreas” value ([2]; 1 h p.i.) was 0.25 ± 0.06 % ID/g and the “Biodistribution Parotid gland” value ([2]; 1 h p.i.) was 0.62 ± 0.20 % ID/g. The “Biodistribution Spleen” value ([2]; 1 h p.i.) was 2.51 ± 0.95 % ID/g, the “Biodistribution Stomach” value ([2]; 1 h p.i.) was 0.30 ± 0.09 % ID/g and the “Biodistribution Submandibular gland” value ([2]; 1 h p.i.) was 0.37 ± 0.08 % ID/g. For the same compound, the “Biodistribution Tumor” value ([2]; 1 h p.i.) was 5.31±0.94 % ID/g, the “Ratio Tumor-to-blood” value ([2]; 1 h p.i.) was 5.57 ± 1.18 and the “Ratio Tumor-to-kidney” value ([2]; 1 h p.i.) was 0.09 ± 0.03. For the same compound, the “Ratio Tumor-to-liver” value ([2]; 1 h p.i.) was 6.61 ± 2.19, the “Ratio Tumor-to-muscle” value ([2]; 1 h p.i.) was 44.1 ± 9.0 and the “Ratio Tumor-to-parotid gland” value ([2]; 1 h p.i.) was 9.09 ± 3.13. The “Ratio Tumor-to-submandibular gland” value ([2]; 1 h p.i.) was 14.7 ± 3.5, the “tumor-to-submandibularis and -parotidea ratios at 1 h p.i. compared to respective values at 24 h p.i.” value ([2]; 1 h p.i. vs 24 h p.i.) was “two-fold lower” and the “Biodistribution Adrenals” value ([2]; 24 h p.i.) was 0.04 ± 0.01 % ID/g. The “Biodistribution Blood” value ([2]; 24 h p.i.) was 0.00 ± 0.00 % ID/g, the “Biodistribution Bone” value ([2]; 24 h p.i.) was 0.02 ± 0.01 % ID/g and the “Biodistribution Heart” value ([2]; 24 h p.i.) was 0.02 ± 0.01 % ID/g. The “Biodistribution Intestine” value ([2]; 24 h p.i.) was 0.12 ± 0.06 % ID/g, the “Biodistribution Kidneys” value ([2]; 24 h p.i.) was 0.31 ± 0.05 % ID/g and the “Biodistribution Liver” value ([2]; 24 h p.i.) was 0.13 ± 0.05 % ID/g. The “Biodistribution Lung” value ([2]; 24 h p.i.) was 0.03 ± 0.01 % ID/g, the “Biodistribution Muscle” value ([2]; 24 h p.i.) was 0.01 ± 0.01 % ID/g and the “Biodistribution Pancreas” value ([2]; 24 h p.i.) was 0.02 ± 0.01 % ID/g. For the same compound, the “Biodistribution Parotid gland” value ([2]; 24 h p.i.) was 0.04 ± 0.02 % ID/g, the “Biodistribution Spleen” value ([2]; 24 h p.i.) was 0.09 ± 0.01 % ID/g and the “Biodistribution Stomach” value ([2]; 24 h p.i.) was 0.06 ± 0.04 % ID/g. The “Biodistribution Submandibular gland” value ([2]; 24 h p.i.) was 0.03 ± 0.01 % ID/g, the “Biodistribution Tumor” value ([2]; 24 h p.i.) was 1.20 ± 0.55 % ID/g and the “Ratio Tumor-to-blood” value ([2]; 24 h p.i.) was 947 ± 652. The “Ratio Tumor-to-kidney” value ([2]; 24 h p.i.) was 3.80 ± 1.36, the “Ratio Tumor-to-liver” value ([2]; 24 h p.i.) was 8.94 ± 2.94 and the “Ratio Tumor-to-muscle” value ([2]; 24 h p.i.) was 127 ± 92. The “Ratio Tumor-to-parotid gland” value ([2]; 24 h p.i.) was 31.8 ± 9.3 and the “Ratio Tumor-to-submandibular gland” value ([2]; 24 h p.i.) was 34.5 ± 9.2.
`CC(C)(C)[Si](F)(c1ccc(C(=O)NCC(NC(=O)CN2CCN(CC(=O)[O-])CCN(CC(=O)[O-])CCN(CC(=O)[O-])CC2)C(=O)NC(CCCCNC(=O)CCC(=O)NCCCC(NC(=O)CCC(NC(=O)NC(CCc2nnn[nH]2)C(=O)O)C(=O)O)C(=O)O)C(=O)O)cc1)C(C)(C)C.[Lu+3]` (centres unmarked) [^natLu-11, ^natLu-Tetrazole Derivative 11] showed an IC50 (PSMA) of 16.4 ± 3.8 nM.
